Test results: ChEMBL document CHEMBL1147335, “New leukotriene B4 receptor antagonist: leucettamine A and related imidazole alkaloids from the marine sponge Leucetta microraphis” (J Nat Prod, 1993)

Key:
[1] = target: T1, Leukotriene B4 receptor 1 (Homo sapiens, UniProt Q15722); assay: Displacement of [3H]LTB4 from LTB4 receptor expressed in human U937 cell membrane; format: cell membranes, U-937
[2] = target: T1, Leukotriene B4 receptor 1; assay: Binding affinity to LTB4 receptor in human U937 cells by whole cell assay; format: cell-based, U-937
[3] = target: T1, Leukotriene B4 receptor 1; assay: Antagonist activity at LTB4 receptor in fura-2 loaded human U937 cells assessed as inhibition of LTB4-induced calcium mobilization; format: functional, cell-based, U-937

T1 sequence (Q15722 whole entry): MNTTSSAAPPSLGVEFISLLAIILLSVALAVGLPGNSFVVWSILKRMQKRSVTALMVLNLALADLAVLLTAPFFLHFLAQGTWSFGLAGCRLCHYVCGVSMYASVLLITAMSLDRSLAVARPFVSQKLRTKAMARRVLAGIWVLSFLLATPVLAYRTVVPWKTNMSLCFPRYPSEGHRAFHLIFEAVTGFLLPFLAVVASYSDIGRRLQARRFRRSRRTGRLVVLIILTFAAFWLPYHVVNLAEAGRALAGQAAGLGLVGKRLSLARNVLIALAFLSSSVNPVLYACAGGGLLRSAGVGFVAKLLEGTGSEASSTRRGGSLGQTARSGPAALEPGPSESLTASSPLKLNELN

Ki [1]	IC50 [1]	IC50 [2]	IC50 [3]	SMILES
5.3 µM	15.6 µM	–	–	CN1C(=N)N(C)/C(=N/c2nc(Cc3ccc4c(c3)OCO4)c(Cc3ccc4c(c3)OCO4)n2C)C1=O [LEUCETTAMIDINE]
1.3 µM	4 µM	0.75 µM	4.6 µM	Cn1c(N)nc(Cc2ccc3c(c2)OCO3)c1Cc1ccc2c(c1)OCO2 [LEUCETTAMINE A]

SMILES	Ki [1]	IC50 [1]	IC50 [2]	IC50 [3]
CN1C(=O)/C(=C/c2ccc3c(c2)OCO3)N=C1N [LEUCETTAMINE B]	100 µM	–	–	–
